In patent publication US8383619B2, “Pharmaceutical compounds” (Astex Therapeutics Limited, priority 2008, dated 2013):

How the values were obtained:
Experiment in all cases: Anti-proliferative assay (Oncodesign)
Assay type in all cases: cell-based
A-427 = settings: Homo sapiens; A-427 (LUNG); read-out: IC50 (Concentration of test compound)
Method: (§1) The anti-proliferative activities of the parent compounds of the pro-drugs of the invention may be determined by measuring the ability of the compounds to inhibition of cell growth in a number of cell lines such as the human colon cancer cell line HCT116. Inhibition of cell growth is measured using the Alamar Blue assay (Nociari, M. M, Shalev, A., Benias, P., Russo, C. Journal of Immunological Methods 1998, 213, 157-167). The method is based on the ability of viable cells to reduce resazurin to its fluorescent product resorufin. For each proliferation assay cells are plated onto 96 well plates and allowed to recover for 16 hours prior to the addition of inhibitor compounds for a further 72 hours. At the end of the incubation period 10% (v/v) Alamar Blue is added and incubated for a further 6 hours prior to determination of fluorescent product at […]. In the case of the non-proliferating cell assay cells are maintained at confluence for 96 hour prior to the addition of inhibitor compounds for a further 72 hours. The number of viable cells is determined by Alamar Blue assay as before. Cell lines may be obtained from the ECACC (European Collection of cell Cultures).
(§2) The parent compound of the pro-drugs of Examples 1 to 25 i.e. (2,4-dihydroxy-5-isopropyl-phenyl)-[5-(4-methyl-piperazin-1-ylmethyl)-1,3-dihydro-isoindol-2-yl]-methanone, in the form of its L-lactate salt, was tested in anti-proliferative assays against one hundred cell lines by Oncodesign (Dijon, France). The IC50 values against each cell line are set out in the table below and the figures in the table refer to nanomolar concentrations. The compounds were tested up to a concentration of 10,000 nanomolar.

A-431 = settings: Homo sapiens; A-431 (SKIN); read-out: IC50 (Concentration of test compound)
Method: as §1, §2

BB74-MEL = BB74-MEL (SKIN); read-out: IC50 (Concentration of test compound)
Method: as §1, §2

BV-173 = settings: Homo sapiens; BV-173 (BLOOD); read-out: IC50 (Concentration of test compound)
Method: as §1, §2

CAMA-1 = settings: Homo sapiens; CAMA-1 (BREAST); read-out: IC50 (Concentration of test compound)
Method: as §1, §2

CGL-9 = CGL-9 (BRAIN); read-out: IC50 (Concentration of test compound)
Method: as §1, §2

Caki-1 = settings: Homo sapiens; Caki-1 (KIDNEY); read-out: IC50 (Concentration of test compound)
Method: as §1, §2

Calu-1 = settings: Homo sapiens; Calu-1 (LUNG); read-out: IC50 (Concentration of test compound)
Method: as §1, §2

Caov-3 = settings: Homo sapiens; Caov-3 (OVARY); read-out: IC50 (Concentration of test compound)
Method: as §1, §2

HCT 116 = settings: Homo sapiens; HCT 116 (COLON); read-out: IC50 (Concentration of test compound)
Method: as §1, §2

HL-60 = settings: Homo sapiens; HL-60 (BLOOD); read-out: IC50 (Concentration of test compound)
Method: as §1, §2

Hs 746T = settings: Homo sapiens, Hs746T; Hs 746T (STOMACH); read-out: IC50 (Concentration of test compound)
Method: as §1, §2

KG-1 = settings: Homo sapiens; KG-1 (BLOOD); read-out: IC50 (Concentration of test compound)
Method: as §1, §2

LB1047-RCC = LB1047-RCC (KIDNEY); read-out: IC50 (Concentration of test compound)
Method: as §1, §2

LB12-SCLC/OC2 = LB12-SCLC/OC2 (LUNG); read-out: IC50 (Concentration of test compound)
Method: as §1, §2

LB13-SCLC/OC3 = LB13-SCLC/OC3 (LUNG); read-out: IC50 (Concentration of test compound)
Method: as §1, §2

LB1319-MEL = LB1319-MEL (SKIN); read-out: IC50 (Concentration of test compound)
Method: as §1, §2

LoVo = settings: Homo sapiens; LoVo (COLON); read-out: IC50 (Concentration of test compound)
Method: as §1, §2

MCF-7/ras = settings: Homo sapiens, MCF7; MCF-7/ras (BREAST); read-out: IC50 (Concentration of test compound)
Method: as §1, §2

NCI-H1299 = settings: Homo sapiens; NCI-H1299 (LUNG); read-out: IC50 (Concentration of test compound)
Method: as §1, §2

OCI-AML2 = settings: Homo sapiens; OCI-AML2 (BLOOD); read-out: IC50 (Concentration of test compound)
Method: as §1, §2

Ramos = settings: Homo sapiens; Ramos (BLOOD); read-out: IC50 (Concentration of test compound)
Method: as §1, §2

SK-MEL-5 = settings: Homo sapiens; SK-MEL-5 (SKIN); read-out: IC50 (Concentration of test compound)
Method: as §1, §2

SK-MES-1 = settings: Homo sapiens; SK-MES-1 (LUNG); read-out: IC50 (Concentration of test compound)
Method: as §1, §2

UZG4-MEL = UZG4-MEL (SKIN); read-out: IC50 (Concentration of test compound)
Method: as §1, §2

ZR-75-1 = settings: Homo sapiens; ZR-75-1 (BREAST); read-out: IC50 (Concentration of test compound)
Method: as §1, §2

IC50 (A-431): 3800 nM | IC50 (Calu-1): 270 nM | IC50 (HCT 116): 38 nM | IC50 (HL-60): 389 nM | IC50 (LoVo): 51 nM | IC50 (MCF-7/ras): 166 nM | IC50 (NCI-H1299): 587 nM | IC50 (OCI-AML2): > 10000 nM | IC50 (Ramos): 46 nM | IC50 (SK-MEL-5): 185 nM | IC50 (SK-MES-1): 270 nM
Structure (SMILES): CC(C)c1cc(C(=O)N2Cc3ccc(CN4CCN(C)CC4)cc3C2)c(O)cc1O [(2,4-dihydroxy-5-isopropyl-phenyl)-[5-(4-methyl-piperazin-1-ylmethyl)-1,3-dihydro-isoindol-2-yl]-methanone]
IC50 (A-427): 130 nM | IC50 (BB74-MEL): 162 nM | IC50 (BV-173): 73 nM | IC50 (CAMA-1): 22 nM | IC50 (CGL-9): 161 nM | IC50 (Caki-1): > 10000 nM | IC50 (Caov-3): 94 nM | IC50 (Hs 746T): 34 nM | IC50 (KG-1): > 10000 nM | IC50 (LB1047-RCC): 58 nM | IC50 (LB12-SCLC/OC2): 52 nM | IC50 (LB13-SCLC/OC3): 21 nM | IC50 (LB1319-MEL): 35 nM | IC50 (UZG4-MEL): 180 nM | IC50 (ZR-75-1): 131 nM
